We go through four molecules from US5081113A, “Novel 3-keto-steroids” (Roussel Uclaf, priority 1989, dated 1992).

Like-named read-outs stand apart in the source and are kept apart here.

For assay [1], the system named is lipid peroxidation (MDA formation) in brain homogenates. Briefly: Test of formation of malondialdehyde (MDA), non-enzymatic lipid peroxidation triggered by ferrous sulfate in brain homogenates. The format is biochemical, S-D rats. As to conditions: brain homogenate, 60 minutes at 37° C. How it is done:
1.1 MDA formation was measured on 10-fold diluted (V/V) homogenates of brains of S-D rats (200 g) prepared in Krebs buffer pH 7.4 under the conditions described in J. Biol. Chem., Vol. 262 (1987), p. 10438 to 10440. 1 ml of homogenate was incubated for 60 minutes at 37° C. in the presence of 25 microliters of ethanol or water or a mixture of the two depending on the product containing or not containing the test product, after the addition of 25 microliters of ferrous sulfate solution prepared immediately before use in water outgassed with argon (200 micromoles final). 0.25 ml of incubated mixture were withdrawn and 1.5 ml of 1% strength phosphoric acid, 0.25 ml of a solution containing 200 micromoles of deferoxamine (Desferal^.phi., Ciba Geigy) in water, 10 microliters of butylated hydroxy-toluene (BHT) at a concentration of 8.7 mg/ml in ethanol and 0.5 ml of thiobarbituric acid (TBA) at a concentration of 0.6% in water were added. The mixture was heated to 100° C. for 45 minutes and cooled. 4 ml of n-butanol were added and the mixture was centrifuged for 15 minutes at 4000 rpm and the OD of the supernatant fraction was then read at 535 nm. The reaction blanks in the absence of Fe^++ were incubated under the same conditions.

Assay [2] has as its system lipid peroxidation (MDA formation) in rat liver microsomes. Briefly: Test of formation of malondialdehyde (MDA), non-enzymatic lipid peroxidation triggered by ferrous sulfate in rat liver microsomes. The format is biochemical, S-D rats. As to conditions: ferrous sulfate/ascorbate, pH 7.4, 15 minutes at 37° C. How it is done:
The reaction was stopped by adding 2 ml of a 1M solution of trichloroacetic acid in 0.25M hydrochloric acid containing 0.4% of thiobarbituric acid. The mixture was heated to 85° C. for 25 minutes, cooled and centrifuged for 15 minutes at 3500 rpm, and the OD of the supernatant fraction was then read at 535 nm. The reaction blanks in the absence of Fe^++ were performed at the same time. The percentage inhibition was calculated as above.

Assay [3] has the same test system. The conditions noted are these: liver microsomes of phenobarbital-pretreated rats, NADPH/carbon tetrachloride, pH 7.4, 15 minutes at 37° C. On the technique in general: Liver microsomes are vesicles of endoplasmic reticulum, rich in cytochrome P450 enzymes.

`C[C@]12CCC(=O)C=C1C=C[C@@H]1[C@@H]2[C@@H](O)C[C@@]2(C)[C@H]1CC[C@@]2(O)C#CCN1CCN(c2cc(N3CCCC3)nc(N3CCCC3)n2)CC1` [Example 1, 17α-[3-{4-[(2,6-bis(1-pyrrolidinyl)-4-pyrimidinyl]-1-piperazinyl}-1-propynyl]-Δ^4,6-androstadien-11β,17β-diol-3-one methanesulfonate]: the “percentage inhibition (MDA formation)” value in assay [1] (1 * 10^-4 M) is 9.8 ± 11.2%; in assay [1] (1 * 10^-5 M), -10.6 ± 9.0%; in assay [1] (5 * 10^-4 M), 60.8 ± 3.0%; in assay [2] (1*10^-5 M), 46 ± 3%; in assay [2] (1*10^-6 M) it was 0 ± 18%; in assay [2] (5*10^-5 M), 97.5 ± 0.5%. For the same molecule, the “percentage inhibition (MDA formation)” value in assay [2] (5*10^-6 M) came out at 19.5 ± 6%; in assay [3] (1*10^-5 M), 86 ± 2%; in assay [3] (1*10^-6 M), 16 ± 1%; in assay [3] (5*10^-6 M), 75 ± 4%.
As for `CC1=C[C@@H]2[C@H]([C@@H](O)C[C@@]3(C)[C@H]2CC[C@@]3(O)C#CCN2CCN(c3cc(N4CCCC4)nc(N4CCCC4)n3)CC2)[C@@]2(C)C=CC(=O)C=C12` [Example 2], the “percentage inhibition (MDA formation)” value is 26.6 ± 3.9% in assay [1] (1 * 10^-4 M); 28.0 ± 4.1% in assay [1] (1 * 10^-5 M); 53.1 ± 7.8% in assay [1] (5 * 10^-4 M); 11.3 ± 2% in assay [2] (1*10^-5 M); 0 ± 2% in assay [2] (1*10^-6 M); 85 ± 1.5% in assay [2] (5*10^-5 M). In addition, the “percentage inhibition (MDA formation)” value in assay [2] (5*10^-6 M) is 0 ± 3%; in assay [3] (1*10^-5 M), 80 ± 1%; in assay [3] (1*10^-6 M), 22 ± 1.5%; in assay [3] (5*10^-6 M), 61 ± 1.5%.
`CCN(CC)c1ccc(N2CCN(CC#C[C@]3(O)CC[C@H]4[C@@H]5C=C(C)C6=CC(=O)C=C[C@]6(C)[C@H]5[C@@H](O)C[C@@]43C)CC2)nc1N(CC)CC` [Example 3, 17α-[3-{4-[5,6-bis(diethylamino)-2-pyridyl]-1-piperazinyl}-1-propynyl]-6-methyl-Δ^1,4,6-androstatrien-11β,17β-diol-3-one]: the “percentage inhibition (MDA formation)” value in assay [1] (1 * 10^-4 M) worked out at 62.9 ± 4.5%; in assay [1] (1 * 10^-5 M), 51.3 ± 13.7%; in assay [1] (5 * 10^-4 M) it was 64.2 ± 10%; in assay [2] (1*10^-5 M), 95.5%; in assay [2] (1*10^-6 M) it was 55 ± 9%; in assay [2] (5*10^-6 M), 99.5%. The “percentage inhibition (MDA formation)” value amounted to 93% in assay [3] (1*10^-5 M), 48 ± 2% in assay [3] (1*10^-6 M) and 89 ± 2% in assay [3] (5*10^-6 M).
In the case of `CCN(CC)c1ccc(N(CC)CC)c(N2CCN(CC#C[C@]3(O)CC[C@H]4[C@@H]5C=C(C)C6=CC(=O)C=C[C@]6(C)[C@H]5[C@@H](O)C[C@@]43C)CC2)n1` [Example 4, 17α-[3-{4-[3,6-bis(diethylamino)-2-pyridyl]-1-piperazinyl}-1-propynyl]-6-methyl-Δ^1,4,6-androstatrien-11β,17β-diol-3-one], the “percentage inhibition (MDA formation)” value in assay [1] (1 * 10^-4 M) is listed as 51.0 ± 12.4%; in assay [1] (1 * 10^-5 M) it was 48.5 ± 13.1%; in assay [1] (5 * 10^-4 M), 65.4 ± 10.1%; in assay [2] (1*10^-5 M), 100%; in assay [2] (1*10^-6 M) it was 51 ± 3%; in assay [2] (5*10^-6 M), 99.5%. The “percentage inhibition (MDA formation)” value in assay [3] (1*10^-5 M) is 91 ± 2%; in assay [3] (1*10^-6 M), 49 ± 2%; in assay [3] (5*10^-6 M) it was 85%.
